Source: US10729643B2, “Methods for administration and methods for treating cardiovascular diseases with resiniferatoxin” (priority 2013, dated 2020)
“Also recorded” adds a separate entry of the source.

What was measured:
IL-1 β = assay: Cardiac inflammatory cytokine IL-1β levels after MI; format: in vivo, rat; conditions: epicardial RTX during MI; 1 day or 1 week after MI
Description: This example illustrates local anti-inflammatory effects of RTX in the infarcted heart. Myocardial ischemia causes the production and release of several metabolites including bradykinin, prostaglandins and protons that stimulate cardiac sympathetic afferent nerve endings leading to increases in BP, HR and sympathetic nerve activity. As cardiac TRPV1-expressing sympathetic afferents also subserve a “dual sensory-efferent” function and release pro-inflammatory neuropeptides, we hypothesized that plasma extravasation and cardiac neuroinflammation follows myocardial ischemia. […] Inflammation in the infarct area may be due to tissue death whereas in peri-infarct and remote areas may be due to cardiac sympathetic afferent mediated neuroinflammation. This may explain why RTX prevented cardiac inflammation in non-infarct areas to a greater extent than in the infarct area.

[1] = system: cardiac sympathetic afferent reflex (CSAR); assay: CSAR activation: cardiovascular and sympathetic responses to epicardial capsaicin or bradykinin; format: in vivo, rat; conditions: for cardiovascular responses to acute epicardial application of capsaicin and bradykinin: sham rats
Protocol: (§1) In order to desensitize cardiac sympathetic afferents in rats, resiniferatoxin (RTX, 1 mg; Sigma Aldrich) was dissolved in 2 ml of ethanol and mixed with 18 ml of Tween in isotonic saline. RTX (50 μg/ml) was applied twice on the entire left and right ventricles with a swab just prior to coronary ligation. The dose of RTX was determined by preliminary experiments in which we found nearly complete ablation of TRPV1-expressing cardiac nerve endings on the surface of the rat heart for more than 10 weeks. Rat surgery was performed 9-11 weeks post-MI. Rats were anesthetized with urethane (800 mg/kg ip) and α-chloralose (40 mg/kg ip). Renal sympathetic nerve activity (RSNA) and cardiac sympathetic nerve activity (CSNA) were recorded for evaluating basal renal and cardiac sympathetic tone.
In another parallel set of experiments, we further confirmed the efficiency of RTX-induced TRPV1-expressing CSAR afferent ablation functionally by epicardial application of capsaicin and bradykinin (10 μg/ml) in sham+RTX rats treated with various doses (0.5 μg/ml, 5 μg/ml and 50 μg/ml) and at various time points (1 week, 4-6 weeks, 9-11 weeks and 6 months after RTX). […] Therefore, a higher dose greater than 5 μg/ml should be used for epicardial administration.
To determine activation of the CSAR, epicardial application of capsaicin and bradykinin was used to effectively stimulate the cardiac sympathetic afferents (Zahner et al. J. Physiol. 2003; 551:515-523). The time interval between capsaicin and bradykinin was about 15-20 min to allow the arterial pressure (AP), heart rate (HR) and renal sympathetic nerve activity (RSNA) to return to, and stabilize at their control levels.

sham and CHF rats = assay: Basal sympathetic tone (RSNA, CSNA, urinary NE) and arterial baroreflex function
[2] = biological target: T1, TRPV1-expressing cardiac afferents (Rattus norvegicus, UniProt O35433); assay: TRPV1 immunofluorescence in cardiac nerve endings after epicardial RTX; format: in vivo
T1 construct: from tissue; host or cells: cardiac (epicardial) nerve endings of male Sprague-Dawley rats, in vivo
Protocol: as §1
More specifically, we examined TRPV1 protein expression in cardiac nerve endings from vehicle and RTX-treated rats using immunofluorescence. Experiments were performed on male Sprague-Dawley rats weighing −400 to −500 g. […] Cardiac function in all experimental animals was measured 2 and 6 weeks after MI by echocardiography (VEVO 770, Visual Sonics, Inc.) as described in (Wang et al., J. Appl. Physiol. 2010; 108:1365-1375; Wang et al. 2, Am. J. Physiol. Regul. Integr. Comp. Physiol. 2012; 320:R1260-R1270; and Wang et al. 3, J. Physiol. 2010; 588:5033-5047). […]

rats = conditions: subcutaneous and epidural administration; cited from earlier work
[3] = sham and CHF rats, 9-11 weeks after epicardial RTX 50 μg/ml

T1 sequence (O35433 whole entry): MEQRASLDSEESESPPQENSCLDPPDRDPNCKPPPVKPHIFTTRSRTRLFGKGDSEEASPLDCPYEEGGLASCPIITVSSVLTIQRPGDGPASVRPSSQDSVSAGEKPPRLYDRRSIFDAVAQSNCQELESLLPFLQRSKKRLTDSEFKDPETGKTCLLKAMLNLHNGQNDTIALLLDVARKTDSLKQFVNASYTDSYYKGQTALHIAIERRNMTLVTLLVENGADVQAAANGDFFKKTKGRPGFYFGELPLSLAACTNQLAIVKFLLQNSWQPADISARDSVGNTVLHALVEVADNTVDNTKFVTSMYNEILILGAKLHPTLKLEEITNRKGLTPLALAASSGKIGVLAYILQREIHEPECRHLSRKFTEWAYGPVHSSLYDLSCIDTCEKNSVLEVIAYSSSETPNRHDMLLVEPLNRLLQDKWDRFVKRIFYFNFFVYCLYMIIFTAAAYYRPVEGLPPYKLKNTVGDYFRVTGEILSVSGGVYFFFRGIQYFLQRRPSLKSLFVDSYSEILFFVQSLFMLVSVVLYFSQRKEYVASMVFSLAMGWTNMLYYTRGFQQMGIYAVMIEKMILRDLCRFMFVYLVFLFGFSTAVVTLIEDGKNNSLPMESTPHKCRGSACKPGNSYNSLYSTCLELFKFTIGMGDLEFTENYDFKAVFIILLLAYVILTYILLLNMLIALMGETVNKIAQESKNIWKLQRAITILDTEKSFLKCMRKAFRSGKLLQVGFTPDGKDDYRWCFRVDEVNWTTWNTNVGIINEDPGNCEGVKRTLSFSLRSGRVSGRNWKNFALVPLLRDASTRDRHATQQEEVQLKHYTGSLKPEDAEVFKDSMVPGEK

Q: For C=C(C)[C@]12C[C@@H](C)[C@@]34O[C@](Cc5ccccc5)(O[C@@H]1[C@@H]3C=C(COC(=O)Cc1ccc(O)c(OC)c1)C[C@]1(O)C(=O)C(C)=C[C@@H]41)O2 [RTX, resiniferatoxin], which “increased IL-1 β expression in peri-infarct and remote areas post MI” value (IL-1 β) is on record?
A: markedly attenuated

Q: And the “increased IL-1 β level in the infarct area” value (IL-1 β)?
A: partially prevented

Q: What about the “sham rats showing partial recovery of the cardiovascular responses to capsaicin and bradykinin” value ([1]; 10 weeks after epicardial RTX 5 μg/ml, preliminary experiment) of the same compound?
A: 40%

Q: What about the “duration for which CSAR was abolished” value ([1]; RTX 50 μg/ml applied to the surface of heart) of the same compound?
A: 9-11 weeks

Q: What about the “sensitivity to capsaicin and bradykinin” value ([1]; all rats, 10 weeks after epicardial RTX 50 μg/ml) of the same compound?
A: still insensitive

Q: What about the “cardiovascular responses to capsaicin and bradykinin / CSAR sensitivity at 6 months after RTX” value ([1]; epicardial RTX 50 μg/ml, 6 months) of the same compound?
A: recovery of CSAR sensitivity; also recorded: largely recovered

Q: And the “duration for which cardiovascular responses to capsaicin and bradykinin were abolished” value ([1]; epicardial RTX 50 μg/ml, time course experiments)?
A: more than 10 weeks

Q: And the “bradykinin-induced CSAR activation” value [1, 3]?
A: greatly attenuated

Q: And the “cardiovascular and sympathetic activation (MAP, HR, RSNA) in response to epicardial capsaicin” value [1, 3]?
A: almost completely abolished

Q: What about the “cardiovascular responses to acute epicardial application of capsaicin and bradykinin” value ([1]; 1 week after epicardial RTX 5 μg/ml) of the same compound?
A: largely abolished

Q: And the “cardiovascular responses to acute epicardial application of capsaicin and bradykinin” value ([1]; 1 week after epicardial RTX 50 μ/ml)?
A: largely abolished

Q: And the “average slope and Gainmax of arterial baroreflex control of HR and RSNA” value (sham and CHF rats; CHF rats)?
A: significantly increased

Q: What about the “basal RSNA and CSNA” value (sham and CHF rats; CHF rats) of the same compound?
A: lowered

Q: What about the “minimum HR and RSNA of arterial baroreflex control” value (sham and CHF rats; CHF rats) of the same compound?
A: decreased

Q: And the “urinary NE excretion” value (sham and CHF rats; CHF+RTX vs vehicle treated rats)?
A: significantly reduced

Q: And the “average slope, Gainmax, and minimum RSNA or HR of arterial baroreflex control” value (sham and CHF rats; sham rats)?
A: no significant effects

Q: And the “TRPV1 immunoreactivity in the epicardium” value ([2]; 1 week, 4-6 weeks and 9-11 weeks after epicardial RTX 50 μg/ml)?
A: absent

Q: What about the “duration of nearly complete ablation of TRPV1-expressing cardiac nerve endings on the surface of the rat heart” value ([2]; epicardial RTX 50 μg/ml, preliminary experiments) of the same compound?
A: more than 10 weeks

Q: And the “duration of thermal analgesia with no restoration of pain sensitivity” value (rats)?
A: over 7 days
